“Also recorded” adds a separate entry of the source. Non-standard residues stand in square brackets, D forms with d. No end group written: not given here. GlcNN = not defined here
Experiments:
[1] = test system: basal myocyte protein; assay: Solid phase screening of Library 6 with unlabeled myocyte proteins; silver staining, on-bead tryptic digest; assay type: binding, neonatal Wistar rats; settings: Normal Myocytes
Protocol: (§1) Myocytes were prepared from 1 to 5 day old neonatal Wistar rats (University of Copenhagen) according to literature procedure described in Busk et al., 2002, Cardiovasc. Res., 56: 64-75 and plated into eight P10 culture plates at 6 million cells/plate.
Isolated proteins that bound to specific ligands were identified using peptide mass fingerprinting. Mass spectra were recorded on a Bruker Reflex m MALDI time-of-flight mass spectrometer (Bruker-Daltonics, Bremen, Germany) operated in the positive reflectron mode using delayed extraction. Measurements were performed using the following parameters: Power 83-84 V; lens 7.300. The sum of 200-300 shots was used for each spectrum.
The spectra were calibrated using bradykinin peptide. In some cases, internal mass calibration was performed using a porcine trypsin autolysis product Peptide masses were searched against peptide mass maps in the National Center for Biotechnology Information (NCBI) database using the following search engines found on the world wide web (www.) for each of: • MS-FIT (prospector.ucsf.edu/ucsfhtml/msfit.htm), • Profound (129.85.19.192/profound_biniWebProFound.exe), and • MASCOT (matrixscience.com).
A search was performed using the NCBI bacterial (E. coli) database and the mammalian databases for the isolated proteins from the E. coli and myocyte samples, respectively, and the Swiss Prot mammalian databases and the Swiss Prot viral databases were searched to identify the porcine macrophage proteins and proteins, respectively. A molecular mass range was estimated from 0-250 K Da, allowing a mass accuracy that varied from 0.1 Da (some cases 0.3 Da) for each peptide mass. A large pI range from 0-14 or 0-12 was considered for each search. If no proteins matched, the mass window was extended. Partial enzyme cleavages allowing for two missed cleavage sites and modification of cysteine by alkylation were considered in the search approaches. A protein was considered identified if the matched peptides covered at least 30% of the complete sequence. A match of less than 30% was considered in some cases, if prominent peaks were obtained. Usually, four or more peptides were used for identification. In some instances, hypothetical proteins or gene products, such as biochemical material, either RNA or protein, calculated from the expected expression of a gene and to which a function may be assigned based on sequence homology, were identified.
Protein was extracted from myocytes prepared as described above for Example 9, using a new procedure (to preserve the activity of metalloproteases) modified from existing protocols, primarily: Amott, et al., 1998, Anal. Biochem. 258: 1-18. The media was removed from plates and cells were washed with ice cold phosphate buffer (5 ml, 10 mM, pH 7.5, supplemented with 0.15 M NaCl,) to remove traces of media components. The adhered cells were treated for 10 minutes with ice cold phosphate buffer (2 mL, 10 mM, pH 7.5, augmented with 0.15 M NaCl, […] E-64, 10 μg/mL Leupeptin, and 10 μg/mL Pepstatin A). The cells were scraped off the plates and then lysed (on ice) in a sonicator (2×) using 10 seconds off/110 seconds on cycles.
(§2) The resulting suspension was augmented with CHAPS (1% w/v), KCl (50 mM), NaCl (0.5 M), ZnCl2 (0.1 mM), DTT (5 mM), and urea (2 M). After 10-15 minutes on ice, the solution was centrifuged for 10 minutes at 15,000 rpm at 4° C. The supernatant was removed and protein content quantified using the NanoOrange Protein test (Molecular Probes, Eugene, Oreg.): Total protein recovered: 195 μg for PE-induced cells and 200 μg for basal cells.
The protein solutions were dialyzed extensively against 20 mM MES (2-[N-Morpholino]ethanesulfonic acid) buffer pH 6.0, supplemented with 0.15 M NaCl and 1 mM ZnCl2 to remove excess detergent and urea. […]

[2] = test system: phenylephrine (PE)-treated myocyte proteins; assay: Solid phase screening of Library 1 with labeled myocyte proteins; bound proteins identified by on-bead digest and peptide mass fingerprinting; assay type: binding, neonatal Wistar rats; settings: Library 1 ligand on PEGA4000 bead; Phenylephrine Treated (Hyperthrophic) Myocytes
Protocol: as §1
(§3) Protein was extracted from myocytes prepared as described above for Example 9, using a new procedure modified from existing protocols, primarily: Arrott, et al., 1998, Anal Biochem. 258: 1-18. The media was removed from plates and adhered cells were treated for 10 minutes with ice cold phosphate buffer (0.25 mL, 10 mM, pH 7.5, augmented with 0.15 M NaCl 60 mM Benzamidine HCl, 5 mM EDTA, 10 μg/n E-64, 10 μg/mL Leu-peptin, 10 μg/mL Pepstatin A, and 1 mM PMSF). The cells were scraped off the plates and then lysed (on ice) in a sonicator (2×) using 10 seconds off/10 seconds on cycles.
as §2, with “with CHAPS, DTT, and urea to a final concentration of” for “with”, “w/v),” for “w/v), KCl (50 mM), NaCl (0.5 M), ZnCl2 (0.1 mM),”, “(8” for “(2”, “70.5” for “195”, “PE-treated” for “PE-induced”, “60” for “200”
(§4) Fluorescent dye Oregon Green 514 (OR) (Molecular Probes) was used to label the healthy/basal cells while Rhodamine Red (RR) (Molecular Probes) was used to label the PE-treated cells. The labeling procedures were carried out according to the manufacturer's protocol. The protein solutions (0.25 mL, 50.4 μg for PE cells and 0.25 mL, 42.8 μg for basal cells) were dialyzed against a solution of 10 mM phosphate buffer, 0.15 M NaCl, pH 7.5 and then 1 M NaHCO3 (0.025 mL) added to a final pH of 8.5. 10 μL of dye in dry DMF (10 mg/mL) was added and the sample stirred at room temperature for 2 hours. The protein solution was dialyzed extensively against 10 mM phosphate buffer, 0.15 M NaCl, pH 7.5, to remove excess dye.
(§5) Ligand library 1 (200 mg), prepared as described for Example 5, was transferred to a syringe fitted with a stop-valve and the ligand-beads were washed for 10 minutes (3×) with 10 mM phosphate buffer, pH 6.8, supplemented with 0.15 M NaCl, 1 mM Ca^2+, 1 mM Zn^2+, 1 mM Mn^2+, 1 mM Cu^2+, and 1 mM Mg^2+ (3 mL). The ligand-beads were treated with a 1% BSA solution for 30 minutes, then washed with buffer (1×). A mixture of labeled myocyte proteins, including both PE-induced protein (138 μL, 40 μg) and basal protein (167 μL, 40 μg) obtained as described above for Example 11, was prepared in 1.2 mL buffer, and added to the ligand library in the syringe. The proteins and ligand library were incubated at room temperature for 16 hours. The library was then washed with buffer for 5 minutes then with water for 3×5 minutes. The library was examined under a fluorescence microscope and brightly fluorescent red, green, and yellow beads (yellow indicative of both dyes red and green binding; the majority of the beads) were present, as well as unlabelled beads. The fluorescent beads were separated and retained for analysis.
(§6) The fluorescent ligand library beads containing bound protein obtained as described in Example 15 were sorted using a COPAS (250) NF Bead Sorter (Union Biometrica, Somerville, Mass.) equipped with a single flourescence emission. Beads emitting fluorescence of only one color contain proteins from one physical state, e.g. proteins expressed only in the PE-induced hypertrophic state (red) or proteins expressed only in the basal state (green). Since the instrument measures one fluorescence emission at a time, beads containing one type of color fluorescence were first sorted and then beads were resorted for emissions from the other fluorescence color. The library was first sorted such that all beads containing significant green fluorescence, basal proteins from healthy myocytes, were isolated. […]

[3] = test system: normal (basal) myocyte protein mixtures; assay: as above; assay type: binding, neonatal Wistar rats; settings: Library 1 ligand on PEGA4000 bead; Normal Myocytes; proteins primarily present in basal cells
Protocol: as §1, §3
as §2, with “with CHAPS, DTT, and urea to a final concentration of” for “with”, “w/v),” for “w/v), KCl (50 mM), NaCl (0.5 M), ZnCl2 (0.1 mM),”, “(8” for “(2”, “70.5” for “195”, “PE-treated” for “PE-induced”, “60” for “200”
as §4, §5, §6

[4] = test system: six protein mixture: Con A, P. sativum lectin, L. culinaris lectin, W. floribunda lectin, Glyceraldehyde 6-phosphate, bovine serum albumin; assay: Solid phase screening of Library 3 with labeled six protein mixture; affinity purification, gel electrophoresis and Edman degradation; assay type: binding

CC(C)C(NC(CCCCN)C(=O)N1CCN(C(=O)OC(C)(C)C)CC1)C(C)C (centres unmarked)
Identified Protein(s) [1]: Angiotensin converting enzyme (P22967).

CCC(CCO)NC(CCCCN)C(=O)N1CCN(C(=O)OC(C)(C)C)CC1 (centres unmarked)
Identified Protein(s) [1]: Angiotensin converting enzyme (P22967).

CCOC(=O)C1CCCCC1NC(CCCCN)C(=O)NC(CCCCNC(=O)OC(C)(C)C)C(=O)O (centres unmarked)
Identified Protein(s) [1]: Angiotensin converting enzyme (P22967); U2 nuclear ribonuceoprotein zuxiliary factor (gi 2842676).

CCCCCCNC(=O)C(CCCCN)NC1CCCCC1C(=O)OCC (centres unmarked)
Identified Protein(s) [1]: Inward rectifier potassium channel 13 (Q9QZ65, IRKD_CAVPO); Sulfonylurea receptor 2 (Q63563); small conductance potassium channel (P58391).

CCCCCCNC(=O)C(CCCCN)NC(CC)CCO (centres unmarked)
Identified Protein(s) [1]: Myosine heavy chain, nonmuscular type (AQ62812); Hypothetical protein E330017A01 (XP-148690.1).

CCOC(=O)C(CCc1ccccc1)NC(CCCCN)C(=O)N[C@@H](C)C(=O)O (some centres unmarked)
Identified Protein(s) [1]: Testase 1 or disintegrin 5 containing metalloproteinase domain 24 (gi 31981793); ADP-ribosylation factor like protein 8 (Q96KC2).

CCOC(=O)C1CCCCC1NC(CCCCN)C(=O)N[C@@H](C)C(=O)O (some centres unmarked)
Identified Protein(s) [1]: Golgi coiled coil protein GCC185 (Q8CHG3).

CC(C)C(NC(CCCCN)C(=O)C[C@@H](C)C(=O)O)C(C)C (some centres unmarked)
Identified Protein(s) [1]: Mysoin heavy chain nonmuscular type (AQ62812).

CCOC(=O)C(CCc1ccccc1)NC(CCCCN)C(=O)N1CCC[C@H]1C(=O)O (some centres unmarked) [drawing 164]
Identified Protein(s) [1]: Angiotensin converting enzyme (P22967); U2 nuclear ribonucleoprotein auxxiliary factor (gi 2842676).

CCCCCCNC(=O)C(CCCCN)NC(C(C)C)C(C)C (centres unmarked) [drawing 170]
Identified Protein(s) [1]: Heat Shock protein 70 kDa protein 12A (Q8KOU4); Ser- ine/threonine protein kinase (O88866); Ras GTPase acti- vating protein 2 (GAP1m) (58069).

Abi-Phe-Abi-Phe-Che-Tyr
Identified Protein(s) [2]: Cathepsin E (gi 4503145); Ribosomal proteins (60s L; also recorded: series) (gi 20826861)

FTYFAK
Identified Protein(s) [3]: Serine/threonine Protein kinase (gi 5730055); Carbonic; also recorded: anhydrase VII (gi 10304383)

GlcNN-Trp-Phe-Asp-Trp-Pro ([GlcNN]WFDWP; reading uncertain)
selectivity of binding among the lectins [4]: binds only to Con A and not to the other lectins | Identified Protein(s) ([4]; Library 3 ligand on PEGA6000 resin, six protein mixture): Con A
